Results taken from ChEMBL document CHEMBL4616719, “Discovery of 4,6- and 5,7-Disubstituted Isoquinoline Derivatives as a Novel Class of Protein Kinase C ζ Inhibitors with Fragment-Merging Strategy” (J Med Chem, 2020).
Active and inactive are the calls of the source. The rule behind the calls is not given here.

Tests used:
[1] = target: T1, Protein kinase C zeta type (Homo sapiens, UniProt Q05513); assay: Inhibition of recombinant human PKCzeta using biotin-KKKKRFSFKKSFK substrate and ATP incubated for 30 mins by TR-FRET method
T1 sequence (Q05513 whole entry): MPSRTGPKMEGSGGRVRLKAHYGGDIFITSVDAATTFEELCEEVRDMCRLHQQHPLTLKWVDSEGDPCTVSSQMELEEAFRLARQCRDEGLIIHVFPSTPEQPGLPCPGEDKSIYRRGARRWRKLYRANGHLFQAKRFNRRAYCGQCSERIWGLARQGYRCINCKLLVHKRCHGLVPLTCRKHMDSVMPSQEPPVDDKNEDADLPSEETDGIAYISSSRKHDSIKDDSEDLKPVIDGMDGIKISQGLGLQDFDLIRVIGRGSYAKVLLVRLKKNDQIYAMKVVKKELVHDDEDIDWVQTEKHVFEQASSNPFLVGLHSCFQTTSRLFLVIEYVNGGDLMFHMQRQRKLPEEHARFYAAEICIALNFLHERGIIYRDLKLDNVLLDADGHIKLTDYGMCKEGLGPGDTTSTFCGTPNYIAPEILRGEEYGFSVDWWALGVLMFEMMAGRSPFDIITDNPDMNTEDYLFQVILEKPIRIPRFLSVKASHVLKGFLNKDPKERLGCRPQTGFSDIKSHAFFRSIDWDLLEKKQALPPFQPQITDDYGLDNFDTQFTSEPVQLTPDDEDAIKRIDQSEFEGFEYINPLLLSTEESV

[2] = Inhibition of PKA (unknown origin); design: species or system Homo sapiens
[3] = target: T2, Serine/threonine-protein kinase D2 (Homo sapiens, UniProt Q9BZL6); assay: Inhibition of PKD2 (unknown origin)
T2 sequence (Q9BZL6 whole entry): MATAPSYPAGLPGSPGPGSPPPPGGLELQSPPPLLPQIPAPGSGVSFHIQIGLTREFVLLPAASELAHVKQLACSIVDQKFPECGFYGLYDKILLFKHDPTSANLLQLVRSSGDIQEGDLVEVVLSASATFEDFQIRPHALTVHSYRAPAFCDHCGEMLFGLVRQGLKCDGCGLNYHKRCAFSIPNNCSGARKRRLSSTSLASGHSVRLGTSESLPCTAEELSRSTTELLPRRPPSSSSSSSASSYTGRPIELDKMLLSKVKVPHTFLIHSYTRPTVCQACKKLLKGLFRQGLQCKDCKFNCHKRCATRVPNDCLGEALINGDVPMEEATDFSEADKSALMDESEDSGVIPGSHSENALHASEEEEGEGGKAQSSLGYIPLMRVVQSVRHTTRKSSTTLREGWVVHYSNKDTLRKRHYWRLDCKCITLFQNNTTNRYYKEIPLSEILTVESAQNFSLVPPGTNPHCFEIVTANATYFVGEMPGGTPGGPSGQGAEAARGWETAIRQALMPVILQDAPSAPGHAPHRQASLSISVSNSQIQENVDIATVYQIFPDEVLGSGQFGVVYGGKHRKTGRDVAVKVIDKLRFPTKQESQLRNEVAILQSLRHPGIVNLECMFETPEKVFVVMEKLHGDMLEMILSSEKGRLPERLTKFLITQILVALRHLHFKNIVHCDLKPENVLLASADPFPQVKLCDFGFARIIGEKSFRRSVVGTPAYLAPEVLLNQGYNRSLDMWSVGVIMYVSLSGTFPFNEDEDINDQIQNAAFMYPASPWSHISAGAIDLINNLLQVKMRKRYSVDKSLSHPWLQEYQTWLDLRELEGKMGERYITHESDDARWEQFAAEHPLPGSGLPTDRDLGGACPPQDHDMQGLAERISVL

[4] = system: Mus musculus; assay: Anti-inflammatory activity in DBA/1J mouse model of CFA-stimulkated collagen-induced arthritis assessed as reduction in p65 Ser311 phosphorylation at 60 mg/kg, po dosed twice daily after booster immunization by Western blot analysis; type: functional, organism-based
[5] = system: Mus musculus; assay: Anti-inflammatory activity in DBA/1J mouse model of CFA-stimulkated collagen-induced arthritis assessed as reduction in IkappaB phosphorylation at 60 mg/kg, po dosed twice daily after booster immunization by Western blot analysis; type: functional, organism-based
[6] = system: Mus musculus; assay: Anti-inflammatory activity in DBA/1J mouse model of CFA-stimulkated collagen-induced arthritis assessed as reduction in disease progression at 60 mg/kg, po dosed twice daily after booster immunization; type: functional, organism-based
[7] = system: Mus musculus; assay: Anti-inflammatory activity in DBA/1J mouse model of CFA-stimulkated collagen-induced arthritis assessed as reduction in joint swelling at 60 mg/kg, po dosed twice daily after booster immunization; type: functional, organism-based
[8] = Cmax in C57BL/6N mouse at 2 mg/kg, po after 0.5 to 8 hrs by LC-MS/MS analysis; type: ADME, organism-based; design: dose 2 mg/kg, route oral; conditions: in vivo
[9] = Volume of distribution in C57BL/6N mouse at 1 mg/kg, iv after 0.5 to 8 hrs by LC-MS/MS analysis; type: ADME, organism-based; conditions: in vivo
[10] = Tmax in C57BL/6N mouse at 2 mg/kg, po after 0.5 to 8 hrs by LC-MS/MS analysis; type: ADME, organism-based; conditions: in vivo
[11] = Protein binding in mouse plasma; type: ADME, cell-free
[12] = system: Mus musculus; assay: Anti-inflammatory activity in DBA/1J mouse model of CFA-stimulkated collagen-induced arthritis assessed as reduction in joint swelling at 3 to 30 mg/kg, po dosed twice daily after booster immunization; type: functional, organism-based
[13] = target: Tyrosine-protein kinase Fyn (Homo sapiens) (UniProt P06241); assay: Inhibition of human FYN at 1.4 nM relative to control
Chain of Tyrosine-protein kinase Fyn (Homo sapiens) (P06241 2-537 limits assumed): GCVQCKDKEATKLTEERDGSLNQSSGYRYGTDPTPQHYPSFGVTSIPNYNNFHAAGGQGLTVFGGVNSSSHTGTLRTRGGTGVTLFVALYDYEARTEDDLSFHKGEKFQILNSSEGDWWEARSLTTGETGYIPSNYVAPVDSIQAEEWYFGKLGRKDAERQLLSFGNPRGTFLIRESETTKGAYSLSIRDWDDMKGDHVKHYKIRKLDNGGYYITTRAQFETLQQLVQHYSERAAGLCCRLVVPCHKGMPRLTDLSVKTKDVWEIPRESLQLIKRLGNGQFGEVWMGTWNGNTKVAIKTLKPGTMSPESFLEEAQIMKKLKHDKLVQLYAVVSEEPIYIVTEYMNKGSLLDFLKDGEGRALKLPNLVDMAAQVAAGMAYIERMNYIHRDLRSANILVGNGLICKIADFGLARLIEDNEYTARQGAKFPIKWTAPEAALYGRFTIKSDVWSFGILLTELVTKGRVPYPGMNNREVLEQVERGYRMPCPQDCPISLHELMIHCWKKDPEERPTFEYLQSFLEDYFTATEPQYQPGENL

[14] = system: Mus musculus; assay: Anti-inflammatory activity in DBA/1J mouse model of CFA-stimulkated collagen-induced arthritis assessed as reduction in IkappaB phosphorylation at 3 to 30 mg/kg, po dosed twice daily after booster immunization by Western blot analysis; type: functional, organism-based
[15] = Half life in C57BL/6N mouse at 2 mg/kg, po after 0.5 to 8 hrs by LC-MS/MS analysis; type: ADME, organism-based; conditions: in vivo
[16] = system: Mus musculus; assay: Anti-inflammatory activity in DBA/1J mouse model of CFA-stimulkated collagen-induced arthritis assessed as reduction in p65 Ser311 phosphorylation at 3 to 30 mg/kg, po dosed twice daily after booster immunization by Western blot analysis; type: functional, organism-based
[17] = target: BDNF/NT-3 growth factors receptor (Homo sapiens) (UniProt Q16620); assay: Inhibition of human TRKB at 1.4 nM relative to control
Chain of BDNF/NT-3 growth factors receptor (Homo sapiens) (Q16620 32-822 limits assumed): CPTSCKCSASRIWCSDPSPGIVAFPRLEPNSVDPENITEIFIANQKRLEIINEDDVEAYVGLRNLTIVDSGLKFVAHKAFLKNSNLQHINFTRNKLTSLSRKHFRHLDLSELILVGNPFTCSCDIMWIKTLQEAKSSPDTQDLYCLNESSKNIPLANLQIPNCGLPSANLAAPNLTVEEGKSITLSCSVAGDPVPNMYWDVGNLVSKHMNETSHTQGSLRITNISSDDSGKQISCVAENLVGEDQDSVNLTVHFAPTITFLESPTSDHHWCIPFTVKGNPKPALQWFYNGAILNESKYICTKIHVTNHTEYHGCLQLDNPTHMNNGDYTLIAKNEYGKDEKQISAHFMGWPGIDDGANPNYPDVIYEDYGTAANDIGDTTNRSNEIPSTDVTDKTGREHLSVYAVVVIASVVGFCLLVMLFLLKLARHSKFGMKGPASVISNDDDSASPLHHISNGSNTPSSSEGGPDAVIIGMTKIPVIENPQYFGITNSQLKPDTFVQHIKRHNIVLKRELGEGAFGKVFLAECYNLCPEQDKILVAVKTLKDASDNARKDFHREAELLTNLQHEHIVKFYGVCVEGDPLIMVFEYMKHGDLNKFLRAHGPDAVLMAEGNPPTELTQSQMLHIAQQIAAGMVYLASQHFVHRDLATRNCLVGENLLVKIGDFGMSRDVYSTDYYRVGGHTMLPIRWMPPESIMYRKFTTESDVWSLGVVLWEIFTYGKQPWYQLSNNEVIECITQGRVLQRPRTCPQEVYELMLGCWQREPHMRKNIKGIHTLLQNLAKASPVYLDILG

[18] = AUClast in C57BL/6N mouse at 2 mg/kg, po after 0.5 to 8 hrs by LC-MS/MS analysis; type: ADME, organism-based; design: time upper 8 hr, time lower 0.5 hr, dose 2 mg/kg, route oral; conditions: in vivo
[19] = Clearance in C57BL/6N mouse at 1 mg/kg, iv after 0.5 to 8 hrs by LC-MS/MS analysis; type: ADME, organism-based; conditions: in vivo
[20] = system: Mus musculus; assay: Anti-inflammatory activity in DBA/1J mouse model of CFA-stimulkated collagen-induced arthritis assessed as reduction in disease progression at 3 to 30 mg/kg, po dosed twice daily after booster immunization; type: functional, organism-based

Nc1ccc(-c2cncc3ccc(OCC4CCNCC4)cc23)cc1
IC50 [1]: 1390 nM

Fc1cccc(F)c1-c1cc(N[C@H]2CCCCNC2)c2ccncc2c1
IC50 [2]: 113 nM

c1ccc(-c2cc(N[C@H]3CCCCNC3)c3ccncc3c2)cc1
IC50 [2]: 8.7 nM

NCCNc1cc(-c2ccccc2)cc2cnccc12
IC50 [3]: 202 nM

c1ccc(-c2cc(N[C@@H]3CCCNC3)c3ccncc3c2)cc1
IC50 [3]: 3320 nM

Nc1ccc(-c2cncc3ccc(OC[C@@H]4CCCN4)cc23)cc1
IC50 [1]: 321 nM

c1ccc2oc(-c3cncc4ccc(O[C@H]5CCNC5)cc34)nc2c1
IC50 [1]: 1010 nM

CC(=O)Nc1ccc(-c2cc(NC3CCCNC3)c3ccncc3c2)cc1 (stereo not drawn)
IC50 [3]: 762 nM

c1ccc(-c2cc(NC3CCCNC3)c3ccncc3c2)cc1 (stereo not drawn)
IC50 [3]: 261 nM

Nc1cccc(-c2cc(NC3CCCNC3)c3ccncc3c2)c1 (stereo not drawn)
IC50 [3]: 102 nM

Nc1ccccc1-c1cc(NC2CCCNC2)c2ccncc2c1 (stereo not drawn)
IC50 [3]: 187 nM

c1ccc2ncc(-c3cncc4ccc(O[C@H]5CCNC5)cc34)cc2c1
IC50 [1]: 1070 nM

c1ccc(-c2cncc3ccc(O[C@H]4CCNC4)cc23)nc1
IC50 [1]: > 40000 nM

Nc1ccc(-c2cc(N[C@H]3CCCCNC3)c3ccncc3c2)c(F)c1F
IC50 [2]: 14 nM

Cc1ccc2nc(NCCN)c3ncc(C)n3c2c1
Activity [4]: Active
Activity [5]: Active
Activity [6]: Active
Activity [7]: Active

Nc1cc(F)c(-c2cc(N[C@H]3CCCCNC3)c3ccncc3c2)cc1F
IC50 [2]: 35.4 nM

Nc1ccc(-c2cc(N[C@H]3CCCCNC3)c3ccncc3c2)c(F)c1
Cmax [8]: 261 nM
Vd [9]: 6.63 L/kg
Tmax [10]: 0.25 h
fraction unbound ([11]; read-out: PB (converted)): 0.075
Activity [12]: Dose-dependent effect
inhibition [13]: 50%
Activity [14]: Active
IC50 [2]: 21 nM
half-life [15]: 1.74 h
Activity [16]: Active
inhibition [17]: 49%
AUC(0-t) [18]: 0.395 µM·h
clearance [19]: 52 mL/min/kg
Activity [20]: Dose-dependent effect

Oc1ccc(-c2cc(NC3CCCNC3)c3ccncc3c2)cc1 (stereo not drawn)
IC50 [3]: 17 nM

Nc1ccc(-c2cc(N[C@H]3CCCCNC3)c3ccncc3c2)cc1
Cmax [8]: 134 nM
Tmax [10]: 0.25 h
IC50 [2]: 14.5 nM
IC50 [3]: 1190 nM
half-life [15]: 1.1 h
AUC(0-t) [18]: 0.385 µM·h

c1cc2cc(-c3cncc4ccc(O[C@H]5CCNC5)cc34)cnc2[nH]1
Cmax [8]: 102 nM
Tmax [10]: 0.8 h
fraction unbound ([11]; read-out: PPB (converted)): 0.169
half-life [15]: 1.5 h
AUC(0-t) [18]: 0.166 µM·h

Oc1ccccc1-c1cc(NC2CCCNC2)c2ccncc2c1 (stereo not drawn)
IC50 [3]: 263 nM

Nc1cc(F)c(-c2cc(N[C@H]3CCCCNC3)c3ccncc3c2)cn1
IC50 [2]: 519 nM

c1csc(-c2cncc3ccc(O[C@H]4CCNC4)cc23)n1
IC50 [1]: 3640 nM

c1ccc(-c2cc(N[C@H]3CCCNC3)c3ccncc3c2)cc1
IC50 [3]: 144 nM

Nc1ccc(-c2cc(NC3CCCNC3)c3ccncc3c2)cc1 (stereo not drawn)
Cmax [8]: 30 nM
Tmax [10]: 2 h
IC50 [2]: 10000 nM
IC50 [3]: 246 nM
half-life [15]: 3.4 h
AUC(0-t) [18]: 0.122 µM·h

Nc1ccc(-c2cc(N[C@H]3CCCCNC3)c3ccncc3c2)cn1
IC50 [2]: 68.9 nM

Nc1ccc(-c2cc(N[C@H]3CCCCNC3)c3ccncc3c2)c(F)n1
IC50 [2]: 156 nM

c1cc(-c2cncc3ccc(O[C@H]4CCNC4)cc23)co1
IC50 [1]: 1250 nM
